Experimental data published in PubChem BioAssay (NCI).
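In this assay, cells in 96-well plates receive the compound at five concentrations for 48 hours. Endpoints are linearly interpolated between the surrounding concentrations. TGI is the concentration that stops growth completely.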

Legend:
Assay in all cases: NCI tumour cell line growth inhibition, 48 h
M14 melanoma = test system: M14 melanoma
MDA-MB-435 = test system: MDA-MB-435
NCI-H226 lung = test system: NCI-H226 lung
IGROV1 ovarian = test system: IGROV1 ovarian
OVCAR-5 ovarian = test system: OVCAR-5 ovarian
MOLT-4 leukemia = test system: MOLT-4 leukemia
A498 renal = test system: A498 renal
MCF7 breast = test system: MCF7 breast
NCI/ADR-RES ovarian = test system: NCI/ADR-RES ovarian
T-47D breast = test system: T-47D breast
LOX IMVI melanoma = test system: LOX IMVI melanoma
SF-268 CNS = test system: SF-268 CNS
HCT-116 colon = test system: HCT-116 colon
SW-620 colon = test system: SW-620 colon
OVCAR-8 ovarian = test system: OVCAR-8 ovarian
NCI-H460 lung = test system: NCI-H460 lung
HCT-15 colon = test system: HCT-15 colon
ACHN renal = test system: ACHN renal
SNB-75 CNS = test system: SNB-75 CNS
RPMI-8226 leukemia = test system: RPMI-8226 leukemia
HOP-92 NSCLC = test system: HOP-92 NSCLC
HS 578T breast = test system: HS 578T breast
MDA-N = test system: MDA-N
HL-60(TB) leukemia = test system: HL-60(TB) leukemia
SNB-19 CNS = test system: SNB-19 CNS
SK-MEL-5 melanoma = test system: SK-MEL-5 melanoma
K-562 leukemia = test system: K-562 leukemia
UO-31 renal = test system: UO-31 renal
SN12C renal = test system: SN12C renal
SK-MEL-28 melanoma = test system: SK-MEL-28 melanoma
SK-OV-3 ovarian = test system: SK-OV-3 ovarian
SK-MEL-2 melanoma = test system: SK-MEL-2 melanoma
SR leukemia = test system: SR leukemia
PC-3 prostate = test system: PC-3 prostate
A549 NSCLC = test system: A549 NSCLC
DU-145 prostate = test system: DU-145 prostate
TK-10 renal = test system: TK-10 renal
CCRF-CEM leukemia = test system: CCRF-CEM leukemia
786-0 renal = test system: 786-0 renal
SF-539 CNS = test system: SF-539 CNS
U251 CNS = test system: U251 CNS
HOP-62 NSCLC = test system: HOP-62 NSCLC
COLO 205 colon = test system: COLO 205 colon
NCI-H23 lung = test system: NCI-H23 lung
UACC-62 melanoma = test system: UACC-62 melanoma
HCC-2998 colon = test system: HCC-2998 colon
EKVX NSCLC = test system: EKVX NSCLC
MDA-MB-231 breast = test system: MDA-MB-231 breast
RXF 393 renal = test system: RXF 393 renal
CAKI-1 renal = test system: CAKI-1 renal
NCI-H522 lung = test system: NCI-H522 lung
OVCAR-4 ovarian = test system: OVCAR-4 ovarian
OVCAR-3 ovarian = test system: OVCAR-3 ovarian
UACC-257 melanoma = test system: UACC-257 melanoma
MALME-3M melanoma = test system: MALME-3M melanoma
SF-295 CNS = test system: SF-295 CNS
BT-549 breast = test system: BT-549 breast
HT29 colon = test system: HT29 colon

## COC(=O)C1(NC(=O)C(Cc2ccccc2)N(C(=O)OC(C)(C)C)C(=O)OC(C)(C)C)CCCC1 (configuration not stated)
M14 melanoma
  TGI: > 100 µM
MDA-MB-435
  TGI: > 100 µM
NCI-H226 lung
  TGI: > 100 µM
IGROV1 ovarian
  TGI: > 100 µM
OVCAR-5 ovarian
  TGI: > 100 µM
MOLT-4 leukemia
  TGI: > 100 µM
A498 renal
  TGI: > 100 µM
MCF7 breast
  TGI: 64.6 µM
NCI/ADR-RES ovarian
  TGI: > 100 µM
T-47D breast
  TGI: > 100 µM
LOX IMVI melanoma
  TGI: > 100 µM
SF-268 CNS
  TGI: > 100 µM
HCT-116 colon
  TGI: > 100 µM
SW-620 colon
  TGI: > 100 µM
OVCAR-8 ovarian
  TGI: > 100 µM
NCI-H460 lung
  TGI: > 100 µM
HCT-15 colon
  TGI: > 100 µM
ACHN renal
  TGI: > 10 µM
SNB-75 CNS
  TGI: > 100 µM
RPMI-8226 leukemia
  TGI: 47.1 µM
HOP-92 NSCLC
  TGI: > 100 µM
HS 578T breast
  TGI: > 100 µM
MDA-N
  TGI: > 100 µM
HL-60(TB) leukemia
  TGI: 62.1 µM
SNB-19 CNS
  TGI: > 100 µM
SK-MEL-5 melanoma
  TGI: > 100 µM
K-562 leukemia
  TGI: > 100 µM
UO-31 renal
  TGI: > 100 µM
SN12C renal
  TGI: > 100 µM
SK-MEL-28 melanoma
  TGI: > 100 µM
SK-OV-3 ovarian
  TGI: > 100 µM
SK-MEL-2 melanoma
  TGI: > 100 µM
SR leukemia
  TGI: > 10 µM
PC-3 prostate
  TGI: > 100 µM
A549 NSCLC
  TGI: > 100 µM
DU-145 prostate
  TGI: > 100 µM
TK-10 renal
  TGI: > 100 µM
CCRF-CEM leukemia
  TGI: > 100 µM
786-0 renal
  TGI: > 10 µM
SF-539 CNS
  TGI: > 100 µM
U251 CNS
  TGI: > 100 µM
HOP-62 NSCLC
  TGI: > 100 µM
COLO 205 colon
  TGI: > 100 µM
NCI-H23 lung
  TGI: > 100 µM
UACC-62 melanoma
  TGI: > 100 µM
HCC-2998 colon
  TGI: > 100 µM
EKVX NSCLC
  TGI: > 100 µM
MDA-MB-231 breast
  TGI: > 100 µM

## CSc1nc(=S)[nH]c2c1c(C)nn2-c1ccccc1
M14 melanoma
  TGI: > 100 µM
MDA-MB-435
  TGI: > 100 µM
RXF 393 renal
  TGI: 94.1 µM
NCI-H226 lung
  TGI: 51.2 µM
OVCAR-5 ovarian
  TGI: > 100 µM
MOLT-4 leukemia
  TGI: 45.3 µM
CAKI-1 renal
  TGI: 40.3 µM
A498 renal
  TGI: 80.6 µM
MCF7 breast
  TGI: 46.1 µM
T-47D breast
  TGI: 62.5 µM
LOX IMVI melanoma
  TGI: > 100 µM
NCI-H522 lung
  TGI: 65.4 µM
SF-268 CNS
  TGI: > 100 µM
HCT-116 colon
  TGI: 43.2 µM
SW-620 colon
  TGI: > 100 µM
OVCAR-4 ovarian
  TGI: 40.9 µM
NCI-H460 lung
  TGI: 58.9 µM
HCT-15 colon
  TGI: > 100 µM
ACHN renal
  TGI: 57.5 µM
OVCAR-3 ovarian
  TGI: > 100 µM
RPMI-8226 leukemia
  TGI: 47.7 µM
HOP-92 NSCLC
  TGI: 35.7 µM
HS 578T breast
  TGI: > 100 µM
UACC-257 melanoma
  TGI: 51.9 µM
MDA-N
  TGI: > 100 µM
MALME-3M melanoma
  TGI: 41.5 µM
HL-60(TB) leukemia
  TGI: > 100 µM
SNB-19 CNS
  TGI: > 100 µM
SK-MEL-5 melanoma
  TGI: 27.8 µM
K-562 leukemia
  TGI: 51.9 µM
UO-31 renal
  TGI: 69.8 µM
SN12C renal
  TGI: 52.7 µM
SK-MEL-28 melanoma
  TGI: > 100 µM
SK-OV-3 ovarian
  TGI: 90.3 µM
SK-MEL-2 melanoma
  TGI: 68.5 µM
SR leukemia
  TGI: 42.8 µM
PC-3 prostate
  TGI: 68.3 µM
A549 NSCLC
  TGI: > 100 µM
DU-145 prostate
  TGI: 40.6 µM
TK-10 renal
  TGI: > 100 µM
CCRF-CEM leukemia
  TGI: 49 µM
SF-295 CNS
  TGI: 84.4 µM
786-0 renal
  TGI: 88.1 µM
SF-539 CNS
  TGI: 98.2 µM
U251 CNS
  TGI: > 100 µM
HOP-62 NSCLC
  TGI: > 100 µM
COLO 205 colon
  TGI: 56.5 µM
NCI-H23 lung
  TGI: 45.8 µM
UACC-62 melanoma
  TGI: 35.3 µM
BT-549 breast
  TGI: > 100 µM
HCC-2998 colon
  TGI: > 100 µM
EKVX NSCLC
  TGI: 46.6 µM
HT29 colon
  TGI: > 100 µM
MDA-MB-231 breast
  TGI: 64.9 µM
